Data set [1] is described as follows: Particle size of the granular carbohydrate compounds used. The class given is physicochemical. To be noted: granular carbohydrate compound as used. The text has this: The term “Dav” means an average particle diameter (Dav). In the table, the term “D10” means the particle diameter (D10 value) of the particle at the position of 10% when counted from the smallest size zero (minimum) to 100% (maximum) of the particle diameter in a particle diameter distribution. The term “D50” means a certain particle diameter (D50 value) when amount of a larger side becomes equal to amount of a smaller side of the particle diameters divided into two a powder from the certain particle diameter. The term “D90” means the particle diameter (D90 value) of the particle at the position of 90% when counted from the smallest size zero (minimum) to 100% (maximum) of the particle diameter in the particle diameter distribution. The same definitions shall apply to following tables.

The nature of data set [2]: Particle diameter distribution by dynamic light scattering photon correlation method (Delsa Nano). In kind it is physicochemical. To be noted: starting organic compound powder before mixing/milling. The text has this:
The term “average particle diameter” used in present specification means a mathematical average diameter (here, defined as the Dav value) in the particle diameter distribution as measured by a dynamic light scattering photon correlation method. The term “50%-diameter” (defined as median diameter or the D50 value) means a certain particle diameter when amount of a larger side becomes equal to amount of a smaller side of the particle diameters divided into two a powder from the certain particle diameter. The term “90%-diameter” (D90 value) means the particle diameter of the particle at the position of 90% when counted from the smallest size zero (minimum) to 100% (maximum) of the particle diameter in the particle diameter distribution as measured by the above-mentioned measurement method. The term “10%-diameter” (D10 value) means the particle diameter of the particle at the position of 10% when counted from the smallest size zero (minimum) to 100% (maximum) of the particle diameter in the particle diameter distribution as measured by the above-mentioned measurement method. […]

With `OC[C@@H](O)[C@@H](O[C@H]1O[C@H](CO)[C@@H](O)[C@H](O)[C@H]1O)[C@H](O)[C@@H](O)CO` [Maltitol, maltitol], in data set [1], the “Particle Size D10” value came to 7 μm, the “Particle Size D50” value came out at 30 μm, the “Particle Size D90” value is recorded as 64 μm and the “Particle Size Dav” value came to 33 μm.

With `O=C(CO)[C@@H](O)[C@H](O)[C@H](O)CO` [Fructose, fructose], in data set [1], the “Particle Size D10” value was 158 μm, the “Particle Size D50” value is reported as 311 μm, the “Particle Size D90” value came out at 566 μm and the “Particle Size Dav” value stood at 339 μm.

Turning to `OC[C@H]1O[C@H](O[C@H]2O[C@H](CO)[C@@H](O)[C@H](O)[C@H]2O)[C@H](O)[C@@H](O)[C@@H]1O` [Trehalose, trehalose], in data set [1], the “Particle Size D10” value worked out at 7 μm, the “Particle Size D50” value was determined as 20 μm, the “Particle Size D90” value was 50 μm and the “Particle Size Dav” value is 25 μm.

With `OC[C@@H](O)[C@@H](O)CO` [Erythritol, erythritol], in data set [1], the “Particle Size D10” value is recorded as 63 μm, the “Particle Size D50” value is 138 μm, the “Particle Size D90” value turned out to be 237 μm and the “Particle Size Dav” value came out at 147 μm.

As to dextrin, in data set [1], the “Particle Size D10” value was 16 μm, the “Particle Size D50” value turned out to be 38 μm, the “Particle Size D90” value worked out at 63 μm and the “Particle Size Dav” value amounted to 38 μm.

With `O.OC[C@H]1O[C@@H](O[C@H]2[C@H](O)[C@@H](O)C(O)O[C@@H]2CO)[C@H](O)[C@@H](O)[C@H]1O` (stereo partly shown) [Lactose monohydrate, lactose monohydrate], in data set [1], the “Particle Size D10” value came to 3 μm, the “Particle Size D50” value came out at 20 μm and the “Particle Size Dav” value is recorded as 45 μm.

On to `OC[C@@H](O)[C@@H](O)[C@H](O)[C@@H](O)CO` [Sorbitol, sorbitol], for which, in data set [1], the “Particle Size D10” value worked out at 75 μm, the “Particle Size D50” value amounted to 154 μm, the “Particle Size D90” value was found to be 249 μm and the “Particle Size Dav” value was found to be 159 μm.

With `OC[C@@H](O)[C@H](O)[C@@H](O)CO` [Xylitol, xylitol], in data set [1], the “Particle Size D10” value is listed as 383 μm, the “Particle Size D50” value is given as 615 μm, the “Particle Size D90” value is 912 μm and the “Particle Size Dav” value is 631 μm.

Consider `COc1cc(/C=C/C(=O)CC(=O)/C=C/c2ccc(O)c(OC)c2)ccc1O` [synthetic curcumin powder, curcumin], for which, in data set [2], the “Particle diameter distribution, D10, before milling” value (“Particle diameter distribution, D10” below) amounted to 4422 nm; the “Particle diameter distribution, D50, before milling” value (shortened to “Particle diameter distribution, D50”) is given as 15070 nm; the “Particle diameter distribution, D90, before milling” value (“Particle diameter distribution, D90” for short) amounted to 33850 nm; the “Particle diameter distribution, Dav (average particle diameter), before milling” value (“Particle diameter distribution, Dav” below) is 17270 nm.

In the case of `CC[C@H]1OC(=O)[C@H](C)[C@@H](O[C@H]2C[C@@](C)(OC)[C@@H](O)[C@H](C)O2)[C@H](C)[C@@H](O[C@@H]2O[C@H](C)C[C@H](N(C)C)[C@H]2O)[C@](C)(OC)C[C@@H](C)C(=O)[C@H](C)[C@@H](O)[C@]1(C)O` [clarithromycin powder, clarithromycin], in data set [2], the “Particle diameter distribution, D10” value is reported as 2277 nm; the “Particle diameter distribution, D50” value turned out to be 6872 nm; the “Particle diameter distribution, D90” value stood at 22850 nm; the “Particle diameter distribution, Dav” value is reported as 10160 nm.

`O=C[C@H](O)[C@@H](O)[C@H](O[C@@H]1O[C@H](CO)[C@@H](O)[C@H](O)[C@H]1O)[C@H](O)CO` [Cellobiose, cellobiose]: in data set [1], the “Particle Size D10” value amounted to 7 μm, the “Particle Size D50” value came to 38 μm, the “Particle Size D90” value was found to be 76 μm and the “Particle Size Dav” value stood at 41 μm.

As to `O[C@H]1[C@H](O)[C@@H](O)[C@H](O)[C@@H](O)[C@H]1O` [Inositol, inositol], in data set [1], the “Particle Size D10” value is 116 μm, the “Particle Size D50” value turned out to be 247 μm, the “Particle Size D90” value came out at 496 μm and the “Particle Size Dav” value was 280 μm.

Consider `CC(=O)[C@@]1(O)CC[C@H]2[C@@H]3C[C@H](C)C4=CC(=O)C=C[C@]4(C)[C@@]3(F)[C@@H](O)C[C@@]21C` [fluorometholone powder, fluorometholone], for which, in data set [2], the “Particle diameter distribution, D10” value came to 1389 nm; the “Particle diameter distribution, D50” value is listed as 2636 nm; the “Particle diameter distribution, D90” value came out at 5709 nm; the “Particle diameter distribution, Dav” value is given as 3148 nm.

`OC[C@@H](O)[C@@H](O)[C@H](O)[C@H](O)CO` [Mannitol, D-(−)-mannitol]: in data set [1], the “Particle Size D10” value amounted to 24 μm, the “Particle Size D50” value is 66 μm, the “Particle Size D90” value was found to be 144 μm and the “Particle Size Dav” value came out at 79 μm.

The values above are taken from patent publication US9278071B2, “Organic compound nano-powder, method for producing the same and suspension” (Activus Pharma Co., Ltd., priority 2012, dated 2016).
